Test results from paper PMC8832557 (Cell Metabolism, 2022).
Read-outs that look alike come from different tables or passages of the source.

How the values were obtained:
[1] = molecular target: T1, ACE2 (angiotensin-I converting enzyme 2) (Homo sapiens, UniProt Q9BYF1); experiment: SPR; format: binding
[2] = molecular target: T1, ACE2 (angiotensin-I converting enzyme 2); experiment: SPR; format: binding; remark: listed apart in the source

T1 sequence (Q9BYF1 18-805): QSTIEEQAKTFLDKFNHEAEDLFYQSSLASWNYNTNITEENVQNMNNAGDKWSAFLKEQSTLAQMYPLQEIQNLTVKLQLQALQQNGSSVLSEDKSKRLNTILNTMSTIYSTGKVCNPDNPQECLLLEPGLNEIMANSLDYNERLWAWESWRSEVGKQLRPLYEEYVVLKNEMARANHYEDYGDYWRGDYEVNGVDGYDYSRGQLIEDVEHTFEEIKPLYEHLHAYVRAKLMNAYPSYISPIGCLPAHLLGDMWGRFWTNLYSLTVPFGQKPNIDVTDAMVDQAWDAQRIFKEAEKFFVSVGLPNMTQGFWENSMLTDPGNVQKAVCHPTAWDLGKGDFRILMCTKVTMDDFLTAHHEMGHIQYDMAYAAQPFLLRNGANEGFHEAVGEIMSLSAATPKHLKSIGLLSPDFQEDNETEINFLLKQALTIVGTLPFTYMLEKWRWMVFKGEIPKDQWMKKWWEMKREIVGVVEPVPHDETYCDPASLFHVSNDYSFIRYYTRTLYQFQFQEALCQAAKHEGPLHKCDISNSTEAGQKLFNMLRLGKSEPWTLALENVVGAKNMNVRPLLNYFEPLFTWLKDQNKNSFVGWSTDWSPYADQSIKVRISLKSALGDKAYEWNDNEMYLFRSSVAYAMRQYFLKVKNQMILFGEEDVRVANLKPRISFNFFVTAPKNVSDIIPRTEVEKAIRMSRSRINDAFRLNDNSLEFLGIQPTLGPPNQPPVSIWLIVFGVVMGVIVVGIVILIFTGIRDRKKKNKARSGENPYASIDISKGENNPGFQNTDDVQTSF

## C[C@]1(OC(=O)/C=C/c2ccccc2)C[C@@H](O)[C@]2(O)C=CO[C@@H](O[C@@H]3O[C@H](CO)[C@@H](O)[C@H](O)[C@H]3O)[C@@H]21 [Har, harpagoside]
[1]
  Kd: 86.1 µM

## CC(=O)/N=c1/sc(S(N)(=O)=O)nn1C [Met, methazolamide]
[1]
  Kd: 70 µM

## N=C(N)c1ccc(/N=N/Nc2ccc(C(=N)N)cc2)cc1 [DIZE, diminazene aceturate]
[2]
  Kd: 4.9 µM

## Cc1ccc(NC(=O)c2ccc(CN3CCN(C)CC3)cc2)cc1Nc1nccc(-c2cccnc2)n1 [Ima, imatinib]
[1]
  Kd: 12.7 µM
